{
  "source": "patent US12427215B2",
  "about": "“Endoscope disinfectant” (Whiteley Corporation Pty Ltd, priority 2019, dated 2025)",
  "assay": "Solubility of surfactants in the base formulation of Example 12",
  "assay_type": "physicochemical",
  "conditions": "base solution of water, dipotassium hydrogen phosphate, potassium hydroxide, benzotriazole; without hydrotrope",
  "experimental": "A base solution comprising 907.77 g deionised water, 46.22 g of anhydrous dipotassium hydrogen phosphate, 30.98 g of 48% w/w potassium hydroxide solution and 10.36 g benzotriazole was prepared. In the case of Surfadone LP100 and Makon NF12, these surfactants were insoluble in the base formulation, and so were solublised using the hydrotrope, Triton H66 (see formulations 12-D and 12-F).",
  "data": [
    {"molecule": "CCCCCCCCN1CCCC1=O", "note": "[Surfadone LP100, N-octyl-2-pyrrolidone]", "values": [
      {"measurement": "solubility in the base formulation", "value": "insoluble"}
    ]}
  ]
}
